Test results reported in the supplement of paper PMC10307832.

Key:
Assay in all cases: relative viability (nuclei count vs DMSO), 5 days (fraction); higher = more cells survive
[1] = compound: CC(C)C[C@@H](C(=O)N[C@H](C(=O)OC1CCCC1)c1ccccc1)[C@H](O)C(=O)NO [Tosedostat] + CC(C)C[C@H](NC(=O)[C@H](Cc1ccccc1)NC(=O)c1cnccn1)B(O)O [Bortezomib] (partner 0.002 µM)
Procedure, shortened: (§1)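 Five library-drug doses in √10 steps were combined with a fixed anchor-drug dose, or a single drug was given alone, by pin tool to lung cancer cell lines in 1536-well plates the day after seeding. Nuclei were stained and counted after 5 days. Relative viability is the nuclei count in treated wells over that in vehicle wells, taken as the median of duplicate plates.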

[2] = compound: CC(C)C[C@@H](C(=O)N[C@H](C(=O)OC1CCCC1)c1ccccc1)[C@H](O)C(=O)NO [Tosedostat] + Cc1nc(Nc2ncc(C(=O)Nc3c(C)cccc3Cl)s2)cc(N2CCN(CCO)CC2)n1 [Dasatinib] (partner 0.075 µM)
Procedure, shortened: as §1

[3] = compound: CC1=NN=C(O1)C2=NN=C(C=C2)N3CCC(CC3)OC4=C(C=CC(=C4)F)Cl + CC(=O)Nc1cccc(-n2c(=O)n(C3CC3)c(=O)c3c(Nc4ccc(I)cc4F)n(C)c(=O)c(C)c32)c1 [Trametinib] (partner 0.02 µM)
Procedure, shortened: as §1

[4] = compound: CC1=NN=C(O1)C2=NN=C(C=C2)N3CCC(CC3)OC4=C(C=CC(=C4)F)Cl + COc1cc2c(Oc3ccc(NC(=O)C4(C(=O)Nc5ccc(F)cc5)CC4)cc3F)ccnc2cc1OCCCN1CCOCC1 [Foretinib] (partner 0.25 µM)
Procedure, shortened: as §1

| Cell Line | relative viability ([1]; first compound 0.02 µM) | relative viability ([1]; first compound 0.06325 µM) | relative viability ([1]; first compound 0.2 µM) | relative viability ([1]; first compound 0.6325 µM) | relative viability ([1]; first compound 2 µM) | relative viability ([2]; first compound 0.02 µM) | relative viability ([2]; first compound 0.06325 µM) | relative viability ([2]; first compound 0.2 µM) | relative viability ([2]; first compound 0.6325 µM) | relative viability ([2]; first compound 2 µM) | relative viability ([3]; first compound 0.253 µM) | relative viability ([3]; first compound 0.8 µM) | relative viability ([3]; first compound 2.53 µM) | relative viability ([3]; first compound 8 µM) | relative viability ([4]; first compound 0.253 µM) | relative viability ([4]; first compound 0.8 µM) | relative viability ([4]; first compound 2.53 µM) | relative viability ([4]; first compound 8 µM) |
| --- | --- | --- | --- | --- | --- | --- | --- | --- | --- | --- | --- | --- | --- | --- | --- | --- | --- | --- |
| COR-L 105 | 0.733 | 0.605 | 0.807 | 0.781 | 0.542 | 0.348 | 0.37 | 0.365 | 0.323 | 0.298 | 0.488 | 0.424 | 0.414 | 0.429 | 0.994 | 1.06 | 1.12 | 1.08 |
| NCI-H1650 | 0.207 | 0.182 | 0.228 | 0.197 | 0.192 | 0.329 | 0.362 | 0.346 | 0.448 | 0.311 | 0.352 | 0.482 | 0.481 | 0.49 | – | 0.928 | 0.998 | 0.852 |
| PC-3 [JPC-3] | 0.819 | 0.771 | 0.823 | 0.776 | 0.552 | 0.999 | 1.06 | 0.929 | 0.621 | 0.7 | 0.634 | 0.684 | 0.668 | 0.748 | 0.774 | 0.923 | 0.874 | 0.855 |
| NCI-H1755 | 0.963 | 0.896 | 0.928 | 0.887 | 0.845 | 0.436 | 0.403 | 0.444 | 0.42 | 0.361 | 0.619 | 0.659 | 0.645 | 0.643 | 0.641 | 0.719 | 0.731 | 0.647 |
| NCI-H23 | 1.11 | 0.959 | 0.846 | 0.687 | 0.463 | 0.785 | 0.817 | 0.741 | 0.662 | 0.455 | 0.34 | 0.37 | 0.372 | 0.381 | 0.981 | – | 0.792 | 0.841 |
| NCI-H1915 | 1.03 | 0.942 | 1.01 | 0.956 | 0.946 | 0.321 | 0.348 | 0.306 | 0.277 | 0.215 | 0.293 | 0.267 | 0.277 | 0.239 | 0.685 | 0.532 | 0.531 | 0.402 |
| NCI-H2405 | 1.04 | 0.949 | 1 | 0.937 | 0.883 | 0.221 | 0.266 | 0.218 | 0.211 | 0.164 | 0.526 | 0.451 | 0.432 | 0.411 | 0.582 | 0.564 | 0.546 | 0.555 |
| EMC-BAC-2 | 1.13 | 1 | 1.07 | 0.944 | 0.985 | 0.317 | 0.356 | 0.343 | 0.371 | 0.311 | 0.873 | 0.736 | 0.791 | 0.65 | 0.968 | 0.95 | 0.89 | 0.98 |
| NCI-H2087 | 0.902 | 0.795 | 0.802 | 0.703 | 0.688 | 1.17 | 0.936 | 0.908 | 0.688 | 0.869 | 0.167 | 0.196 | 0.244 | 0.175 | 0.593 | 0.641 | 0.626 | 0.489 |
| NCI-H727 | 0.884 | 0.771 | 0.804 | 0.613 | 0.613 | 0.404 | 0.339 | – | 0.311 | 0.29 | 0.467 | 0.402 | 0.385 | 0.341 | 0.786 | 0.822 | 0.838 | 0.828 |
| PC-14 | 0.79 | 0.814 | 0.896 | 0.845 | 0.944 | 0.245 | 0.237 | 0.263 | 0.192 | 0.208 | 0.732 | 0.658 | 0.582 | 0.428 | 0.806 | 0.779 | 0.768 | 0.759 |
| NCI-H2009 | 1.3 | 1.02 | 0.971 | 0.926 | 0.728 | 0.279 | 0.334 | 0.226 | 0.267 | 0.24 | 0.257 | 0.23 | 0.233 | 0.174 | 0.711 | 0.667 | 0.644 | 0.636 |
| NCI-H1975 | 0.427 | 0.454 | 0.36 | 0.347 | 0.304 | 0.369 | 0.358 | 0.35 | 0.268 | 0.34 | 0.171 | 0.307 | 0.373 | 0.385 | – | 0.929 | 0.834 | 0.757 |
| ChaGo-K-1 | 1.15 | 1.03 | 0.938 | 0.962 | 0.78 | 0.662 | 0.567 | 0.587 | 0.535 | 0.394 | 0.649 | 0.555 | 0.613 | 0.57 | 0.773 | 0.709 | 0.785 | 0.739 |
| NCI-H1437 | 0.465 | 0.512 | 0.488 | 0.524 | 0.324 | 0.488 | 0.46 | 0.415 | 0.323 | 0.327 | 0.391 | 0.367 | 0.491 | 0.375 | 0.724 | 0.805 | 0.729 | 0.512 |
| NCI-H2126 | 1.13 | 1.14 | 1.14 | 1.08 | 1.03 | 0.611 | 0.662 | 0.636 | 0.63 | 0.558 | 0.528 | 0.532 | 0.504 | 0.486 | 0.982 | 0.932 | 0.958 | 0.985 |
| LU99A | 1.11 | 1.04 | 1.08 | 0.94 | 0.761 | 0.517 | 0.495 | 0.506 | 0.424 | 0.413 | 0.525 | 0.59 | 0.577 | 0.509 | 0.826 | 0.868 | 0.836 | 0.742 |
| NCI-H460 | 1.14 | 0.898 | 1.09 | 0.926 | 1.32 | 0.601 | 0.644 | 0.57 | 0.459 | 0.498 | 0.0953 | 0.176 | 0.175 | 0.15 | 0.282 | 0.299 | 0.273 | 0.243 |
